The values below come from patent EP4361137A1, “PRUNE1 INHIBITORS AND THERAPEUTIC USE THEREOF” (CEINGE Biotecnologie Avanzate Franco Salvatore s.c. a r.l., priority 2022, dated 2024).

The test system of one data set is human PRUNE1. The data set can be described thus: qPCR of PRUNE1 mRNA in MATH1-Prune1/TP53-/- cells. It counts as cell-based. As to conditions: 10 µM, 24 hours, relative to vehicle. Here is the method: (§1) RNA samples were extracted using TRIzol RNA Isolation Reagent (15596026, Invitrogen), according to the manufacturer instructions. Reverse transcription was performed with 5× All-In-One RT MasterMix (g592; ABM), according to the manufacturer instructions. The reverse transcription products (cDNA) were amplified by qRT-PCR using an RT-PCR system (7900; Applied Biosystems, Foster City, CA, USA). The cDNA preparation was through the cycling method, by incubating the complete reaction mix as follows: cDNA reactions: (37 °C for 10 min and 60 °C for 15 min); Heat-inactivation: 95 °C for 3 min; Hold stage: 4 °C. The targets were detected with the SYBR green approach, using BrightGreen BlasTaq 2× PCR MasterMix (G895; ABM). Human ACTB was used as the housekeeping gene to normalize the quantification cycle (Cq) values of the other genes. These runs were performed on a PCR machine (Quantstudio5, Lifetechnologies) with the following thermal protocol: Hold stage: 50 °C for 2 min; Denaturation Step: 95 °C for 10 min; Denaturation and annealing (×45 cycles): 95 °C for 15 s and 60 °C for 60 s; Melt curve stage: 95 °C for 15 s, 60 °C for 1 min, and 95 °C for 15 s. Relative expression of the target genes was determined using the 2^-ΔΔCq method, as the fold increase compared with the controls. The data are presented as means ±SD of the 2^-ΔΔCq values (normalized to human ACTB) of three replicates.
Background: Real-time PCR tracks product formation cycle by cycle.

The test system of another data set is murine PRUNE1. Briefly: qPCR of PRUNE1 mRNA in MATH1-Prune1/TP53-/- cells. It counts as cell-based. As to conditions: 10 µM, 24 hours, relative to vehicle. Here is the method: as §1
The test system of the next data set is CCL2. The data set can be described thus: ELISA of CCL2 in sera of implanted mice. The class given is in vivo, FVB WT mice. To be noted: 6 mg/kg/day intraperitoneally for seven days; n.5 per group. Here is the method: ELISA assay ([…]) was performed by following the manufacturer instruction, to measure the levels of CCL2 cytokine in the sera from immunocompetent syngeneic mice orthotopically implanted with MATH1-Prune1/ TP53-/- cells and treated intraperitoneally for seven days with LEO-AA7.5(S)T (n.5) at 6 mg/kg/day, or with water (n.5) as the vehicle control group.
(In general: An ELISA detects its analyte on a solid surface through an enzyme-linked reagent.)

A further data set deals with MATH1-Prune1/ TP53-/-. Briefly: Orthotopic implantation of MATH1-Prune1/TP53-/- cells in immunocompetent syngeneic mice, survival analysis. The class given is in vivo, FVB WT mice. The procedure:
MATH1-Prune1/ TP53-/- were implanted into the right cerebellar hemisphere of female (n.24) immunocompetent syngeneic mice model (5 weeks old, strain: FVB WT). to establish intracerebellar MATH1-Prune1/ TP53-/- models, mice were anaesthetised with Ketamine/ Xylazine (87.5 mg/kg, 12.5 mg/kg, respectively). The mice were then placed in a stereotactic frame by hooking their incisors onto the frame hold. […] The mice were monitored daily for development of potential neurological deficits. For LEO-AA7.5(S)T in-vivo treatment, starting after 10 days from tumour implantation (i.e., once the tumours were established) the mice (grouped according to body weight values) were injected intraperitoneally with LEO-AA7.5(S)T at 6 mg/kg/day, or with water as the vehicle for the control group. mouse body weights were measured at the indicated time points. Mouse survival was closely monitored during the entire experimental period.

The next data set concerns Caspase 3. Briefly: Caspase 3 activity assay. It counts as cell-based, murine. As to conditions: MATH1-Prune1/TP53-/- cells. The procedure: MATH1-Prune1/TP53-/- cells (3×10^4) were plated in 96-well plate and treated with different doses of Vincristine (i.e., 0.3 nM or 0.03 nM) alone or combined to 10 µM LEO-AA7.5(S)T. Vehicle- (0.01% DMSO) treated cells were used as negative controls. Staurosporine-treated cells (1 µM) were used as positive controls of the assays. The assay was performed by using Caspase-3 Activity Assay Kit (#5723, Cell Signaling), by following the manufacture's instruction. Briefly, after 24 hours from the treatment started, cell medium was removed and 30 ul of cell lysis buffer (PI-7018, Cell Signaling) were added. The plate was then incubated for 5 minutes on ice. Later, 25 ul of cell lysate were mixed with 200 ul substrate solution B (#11734S, Cell Signaling) in a black 96 well plate. Fluorescence was detected by using a multimode plate reader (Enspire, 2300, PerkinElmer). The positive control AMC (25 µl, #11735S, Cell Signaling) mixed with 200 ul 1X assay buffer A (#11736S, Cell Signaling) was used as positive control of fluorescence.

The next data set has as its system D425-Med cells. Briefly: In vivo combinatorial treatment with Vincristine, orthotopic medulloblastoma model. Set-up: species or system nude mice. Here is the method: We then measured the combinatorial treatment with (S)-(1-(4-((4-methoxybenzyl)amino)-1,3,5-triazin-2-yl)piperidin-3-yl)methanol HCl salt compound and Vincristine in vivo. To this end, D425-Med cells (1 ×10^5 cells) were implanted into the fourth ventricle of nude mice (n=18). After 7 days from tumour implantation (i.e., once the tumours were established) the mice (grouped according to their bioluminescence values) were injected intraperitoneally with 0.3 mg/kg/day Vincristine alone or in combination with 6 mg/kg/day (S)-(1-(4-((4-methoxybenzyl)amino)-1,3,5-triazin-2-yl)piperidin-3-yl)methanol HCl salt compound for 18 days (Figures 9E).

As to `COc1ccc(CNc2ncnc(N3CCC[C@H](CO)C3)n2)cc1.Cl` [LEO-AA7.5(S)T, (S)-(1-(4-((4-methoxybenzyl)amino)-1,3,5-triazin-2-yl)piperidin-3-yl)methanol HCl salt], the “human endogenous Prune1 mRNA” value in the data set with human PRUNE1 is recorded as 0.15 fold. Also, the “murine endogenous Prune1 mRNA” value with murine PRUNE1 amounted to 0.4 fold. Also, the “sera circulating CCL2” value with CCL2 is recorded as “decreased levels”. Further, the “toxic effects (body weight)” value with MATH1-Prune1/ TP53-/- (6 mg/kg/day intraperitoneally) is reported as “no toxic effects”. Also, the overall survival result with MATH1-Prune1/ TP53-/- (6 mg/kg/day intraperitoneally from day 10 after implantation) is reported as “improved overall survival”. The “Caspase 3 activation, combination with Vincristine” value in the data set with Caspase 3 (10 µM plus 0.03 nM Vincristine) was “promotes Caspase 3 activation”. Also, in the data set with Caspase 3 (Vincristine 0.3 nM and 0.03 nM, LEO-AA7.5(S)T 10 µM, 24 hours), the “Caspase 3 activation, single agent” value is reported as “does not induce apoptotic action”. Moreover, in the data set on D425-Med cells (6 mg/kg/day plus 0.3 mg/kg/day Vincristine intraperitoneally for 18 days), the “intracranial tumor growth, combinatorial treatment with Vincristine” value was “significantly decreased”. In addition, the “angiogenesis (IVISense Integrin Receptor 680 Fluorescent Probe)” value in the data set with D425-Med cells (combinatorial treatment with Vincristine) is reported as “decreased levels of angiogenesis”.
